Measured values as given in patent US20090232909A1, “Method for determining physiological effects of hemoglobin” (priority 1999, published 2009).
“Also recorded” adds a separate entry of the source.

Key:
[1] = system: intact human erythrocytes; experiment: Distribution of NO groups in membrane and cytosolic fractions of RBCs exposed to NO; format: cell-based; conditions: 0.1 mM DIDS before NO, NO:heme 1:250
Method: RBCs derived from fresh venous blood and suspended in oxygen-purged phosphate-buffered saline (PBS) were exposed in gas-tight vials to NO, added as aliquots of oxygen-purged NO-saturated PBS to yield the specified NO:heme ratios based on spectrophotometric assessment of heme content. Exposure to NO was for 5 mins followed by rinses in PBS at 21% O2. RBCs were lysed in 10 mM MOPS, 0.1 mM DTPA, pH 7, followed by centrifugation at 20,000×g for 10 mins to produce membrane and cytosolic fractions, which were solubilized in 1% TX-100. Quantification of NO groups was by photolysis/chemiluminescence (McMahon, T. J. & Stamler, J. S., Meth. Enzymol. 301:99-114, 1999). SNO content was measured as NO removed by treating sample aliquots for 5 mins with HgCl2 at 5-fold molar excess over estimated thiol content (Gow, A. J. & Stamler, J. S., Nature 391:169-173, 1998; Gow, A. J. et al., Proc. Natl. Acad. Sci. USA 96:9027-9032, 1999; McMahon, T. J. & Stamler, J. S., Meth. Enzymol. 301:99-114, 1999). […]
Immunoprecipitation was carried out by incubation of TX-100 or NP-40 extracts with antibodies followed by protein G-Sepharose. […] Binding of SNO-Hb to IOVs was assessed in 10 mM MOPS buffer, pH 7, at room temperature and 21% O2. Incubation was for 15 mins before IOVs were solubilized in 1% TX-100, and heme content was assessed spectrophotometrically. […]

RBC membrane thiols = experiment: Alkylation of IOV proteins with 14C-iodoacetamide; format: biochemical; conditions: DIDS-modified vs unmodified IOVs
Text: FIG. 8G is a fluorographic image of proteins on an SDS-polyacrylamide gel following electrophoresis. […] The position of AE1 on the gel, determined by Western blotting, is indicated. (n=3-8 for A-F).
Thus, inhibition of transnitrosylation by DIDS supports the conclusion that AE1 is the principal acceptor of NO groups transferred from SNO-Hb to the RBC membrane.

Hb = Hb (Homo sapiens, UniProt P68871+P69905); experiment: metHb production by UV-visible difference spectroscopy after NO addition to variously oxygenated Hb; format: biochemical; set-up: purchased Apex Bioscience (Research Triangle Park, N.C.); conditions: 10 mM phosphate
Method: Nitroso/nitrosyl derivatives of Hb were measured using a photolysis-chemiluminescence technique [6-fold excess HgCl2 over protein was added to displace S-nitrosothiol (SNO) (Stamler, J. S., et al., Science, 276:2034-2037, 1997)]. Samples were kept on ice for a period of 5 minutes to 2 hours before analyses. MetHb was monitored by UV-visible spectroscopy as the difference absorption above the linear baseline (600-700 nm), and EPR (below).
The samples used in FIGS. 1A-1D were assayed for metHb production by UV-visible difference spectroscopy. The data are normalized to added [NO]. As in FIGS. 1A-1D: open diamonds, 10 mM phosphate; open circles, 10 mM phosphate plus borate; open squares, 10 mM phosphate plus SOD; filled circles and filled squares, 100 mM phosphate. The dotted (10 mM phosphate) and dashed (100 mM phosphate) lines are calculated by using Eq. 5 and Fe(II)NO yields in FIGS. 1C and 1D, respectively. […] Systematic deviations are most pronounced in low phosphate at high oxygen saturation—i.e., under physiological conditions.

Chain of Hb (P69905 2-142 limits assumed): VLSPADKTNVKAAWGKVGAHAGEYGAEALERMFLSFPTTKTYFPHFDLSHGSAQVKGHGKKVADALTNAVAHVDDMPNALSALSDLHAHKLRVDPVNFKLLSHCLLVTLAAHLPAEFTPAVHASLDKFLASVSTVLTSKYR
Chain of Hb (P68871 2-147 limits assumed): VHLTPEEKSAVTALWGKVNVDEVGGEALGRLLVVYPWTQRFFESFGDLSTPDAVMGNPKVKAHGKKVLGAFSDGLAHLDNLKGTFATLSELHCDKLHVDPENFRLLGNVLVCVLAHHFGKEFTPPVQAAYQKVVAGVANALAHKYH

SMILES	effect on SNO in the membrane fraction [1]	effect on net formation of NO-liganded Hb (total NO incorporated by RBCs) [1]	direct modification of sulfhydryls (RBC membrane thiols)	shortfall in the Fe(III) and Fe(II)NO products (Hb)
O=S(=O)(O)c1cc(N=C=S)ccc1C=Cc1ccc(N=C=S)cc1S(=O)(=O)O [DIDS, 4,4′-diisothiocyanatostilbene-2,2′-disulfonic acid]	greatly decreased; also recorded: substantially decreases	did not reduce; also recorded: does not reduce	did not modify sulfhydryls directly; also recorded: does not directly reduce reactivity	
[N]=O [NO, nitric oxide]				≤ 20 % of added [NO]0
